According to US12527801B2, “Cell activator of animal cell” (Vitamin C60 BioResearch Corporation, priority 2019, dated 2026):

Test system: Normal human epidermal keratinocytes
Test: Action of activating epidermal cells (MTT reduction)
Format: cell-based
Details: for Index (%) Mean ± S.D.: 48 h, untreated cells = 100
Protocol: Normal human epidermal keratinocytes were seeded on 96-well plates at the density of 5.0×10^3 cells/well using a HuMedia KG2 medium (KG2). 24 hours after seeding, the above-mentioned medium was replaced with a HuMedia KB2 medium (KB2) comprising the test sample. AOH and AHX (2-azahypoxanthine) were used as test samples, KG2 as a positive control (P. C.) for the cell activating action was treated instead of the test sample, and cells which were not treated with the samples were used as a negative control. After culturing for 48 hours, the above-mentioned medium was replaced with KB2 comprising 0.2 mg/mL of MTT to perform culturing for 1 hour. After removing the medium, the absorbance at 550 nm and 650 nm of the cell lysate in which 2-propanol was added to lyse the cells was measured. The amount of MTT reduced to blue formazan was obtained by subtracting the absorbance at 650 nm, which was derived from the cell turbidity, from the absorbance at 550 nm. The action of activating epidermal keratinocytes was shown as Index (%), which is a percentage of the absorbance of the cells, which was treated with the test samples, to the absorbance of the cells, which was not treated with the samples (negative control), with the amount of MTT reduced as an index.

## O=c1[nH]nnc2[nH]cnc12 [AHX, 7H-imidazo[4,5-d][1,2,3]triazin-4(3H)-one, reference compound]
3.9 μg/mL
  Index (%) Mean ± S.D.: 100.6 ± 3%
7.8 μg/mL
  Index (%) Mean ± S.D.: 96.1 ± 2.7%
15.6 μg/mL
  Index (%) Mean ± S.D.: 94 ± 5.9%
31.3 μg/mL
  Index (%) Mean ± S.D.: 87.1 ± 4.5%
62.5 μg/mL
  Index (%) Mean ± S.D.: 80.2 ± 1.8%
125 μg/mL
  Index (%) Mean ± S.D.: 77.4 ± 2^ %
250 μg/mL
  Index (%) Mean ± S.D.: 78.4 ± 1.8%
500 μg/mL
  Index (%) Mean ± S.D.: 74.2 ± 1.9%
Concentration of 31.3 μg/mL or more
  change in Index: significantly reduced
Epidermal keratinocytes
  proliferative effect / cell activating action: did not have a proliferative effect
